Measured values: patent publication US20260167636A1, “NOVEL COMPOUNDS FOR THE DIAGNOSIS OF TDP-43 PROTEINOPATHIES” (AC IMMUNE SA, priority 2022, published 2026)
Where two headings read alike, the source gives them in different places. Marks after values point to notes of the source that are not given here.

Experiments:
Format in all cases: binding
[1] = molecular target: T1, TDP-43 aggregates in human FTD sarkosyl-insoluble brain extracts (Homo sapiens, UniProt Q13148); assay: Kd determination with micro-radiobinding (saturation) assay on human FTD sarkosyl insoluble brain extract
T1 construct: A sample of brain tissue (frontal or temporal cortex) was homogenized; from tissue; host or cells: human FTD patient brain, frontal or temporal cortex, sarkosyl-insoluble fraction
T1 sequence (Q13148 whole entry): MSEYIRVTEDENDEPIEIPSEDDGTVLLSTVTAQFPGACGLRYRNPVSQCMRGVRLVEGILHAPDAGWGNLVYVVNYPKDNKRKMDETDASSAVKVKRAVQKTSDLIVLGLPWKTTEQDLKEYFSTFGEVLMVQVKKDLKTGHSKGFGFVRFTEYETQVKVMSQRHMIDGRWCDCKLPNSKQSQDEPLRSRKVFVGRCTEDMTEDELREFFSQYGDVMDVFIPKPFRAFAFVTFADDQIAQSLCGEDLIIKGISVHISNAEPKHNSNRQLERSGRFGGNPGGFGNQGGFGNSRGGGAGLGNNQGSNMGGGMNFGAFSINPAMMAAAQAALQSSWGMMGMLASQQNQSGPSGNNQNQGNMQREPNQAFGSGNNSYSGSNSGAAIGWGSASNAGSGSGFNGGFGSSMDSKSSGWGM
Experimental: (§1) Human brain extracts were prepared as described in Laferriere et al., 2019, Nature Neurosc. A sample of brain tissue (frontal or temporal cortex) was homogenized at 1:4 (w/v) ratio in the homogenization-solubilization (HS) buffer at 4° C. using tissue homogenizer (Precellys) with CKmix homogenization tubes. The following sequence was used for homogenization: 3 cycles of 30 seconds at 5000 rpm (with 15 seconds pause between each cycle). Homogenized samples were aliquoted and stored at −80° C. in 1.5 mL low protein binding tubes.
(§2) Brain homogenates were thawed on ice and resuspended in HS buffer to obtain a final concentration of 2% sarkosyl, 1 unit/μL Benzonase and 1 mM MgCl2. The samples were then incubated at 37° C. under constant shaking at 600 rpm on a thermomixer for 45 minutes (min). The supernatants were collected in a new tube (sarkosyl-soluble fraction, S1). The pellet was resuspended in 1000 μL of myelin floatation buffer and centrifuged at 20,000 g for 60 min at 4° C. The supernatant was carefully removed to remove all the floating lipids. This step was repeated if all the lipids could not be removed in a single step. The pellet was subsequently washed with Phosphate-Buffered Saline (PBS) and centrifuged for 30 min at 20,000 g at 4° C. The final pellet was resuspended in 200 μL PBS and stored at −80° C. (sarkosyl-insoluble fraction). The samples were analyzed by immunoblotting in denaturing conditions.
2.1 Kd Determination on Human FTD Sarkosyl Insoluble Brain Extract with Micro-Radiobinding Assay of [^3H]-Compound 1, 4, 8, 11, 12
Human FTD sarkosyl-insoluble brain extracts were spotted onto microarray slides. The slides were incubated with [^3H]-Compound 1, [^3H]-Compound 4, [^3H]-Compound 8, [^3H]-Compound 11, or [^3H]-Compound 12 respectively, in a range of concentrations, varying from 1.93 to 300 nM. After incubation, slides were washed and scanned by a real-time autoradiography system (BeaQuant, ai4R). Quantification of the signal was performed by using the Beamage image analysis software (ai4R). Non-specific signal was determined with an excess of non-radiolabelled compound 1, 4, 8, 11 or 12 (2 μM), respectively, and specific binding was calculated by subtracting the non-specific signal from the total signal.
The Kd (Dissociation constant) and R^2 (parameter ranging between 0.0 and 1.0 that quantifies the goodness of fit, and the best curve fit obtained with value of 1.0) were obtained by fitting the specific binding data with non-linear regression analysis, using a one-site specific binding model in GraphPad Prism8.

[2] = molecular target: T2, Human brain derived TDP-43 aggregates (Homo sapiens, UniProt Q13148); assay: Micro-radiobinding competition assay against [3H]-Compound 1; details: for Ki: 0.24 nM to 2 μM; for Ki / Human brain derived TDP-43 aggregates Mean % competition at 1 μM: [3H]-Compound 1 at 50 nM (40 nM for compound 15); for Human brain derived TDP-43 aggregates Mean % competition at 125 nM: compound at 125 nM, [3H]-Compound 1 at 50 nM; for Human brain derived TDP-43 aggregates Mean % competition at 1 μM: compound at 1 μM
T2 construct: A sample of brain tissue (frontal or temporal cortex) was homogenized; from tissue; host or cells: human FTD patient brain, frontal or temporal cortex, sarkosyl-insoluble fraction
T2 sequence (Q13148 whole entry): as above
Experimental: as §1, §2
(§3) Human FTD sarkosyl-insoluble brain extracts were spotted onto microarray slides. Three batches of extracts were used. The slides were incubated with a tritiated reference ligand at 25 nM or with tritiated Compound 1 ([^3H]-Compound 1) at 40 nM or 50 nM depending on the batch used. The example compounds (non-radiolabeled) were used at 1 μM and 125 nM (or 1 μM and 100 nM for compound 15). In some cases, the non-radiolabeled example compounds were further assessed for a range of different concentrations, varying from 0.24 nM to 2 μM for determination of the inhibition constant (Ki). After incubation, slides were washed and scanned by a real-time autoradiography system (BeaQuant, ai4R). Quantification of the signal was performed by using the Beamage image analysis software (ai4R). Non-specific signal was determined with an excess of non-radiolabeled reference compound (2 μM) and specific binding was calculated by subtracting the non-specific signal from the total signal. Competition was calculated as percent, where 0% was defined as the specific binding in the presence of vehicle and 100% as the values obtained in the presence of excess of the non-radiolabeled reference compound. Ki values were calculated in GraphPad Prism8 by applying a nonlinear regression curve fit using a one site, specific binding model. Measurements were performed with at least two technical replicates in the two-concentration competition experiment and with one technical replicate in the experiments including a range of concentrations. For compounds tested in more than one experiment, the mean of the replicates or K; values in independent experiments is reported.
Example compounds 11 to 15 were assessed for their potency to compete with the binding of [^3H]-Compound 1 on two different batches of brain extracts. Results of the micro-radiobinding competition assay for the example compounds are shown in Table 3 below as: % competition at 1 μM and 125 nM (with Compound 1 at 50 nM) for compounds 11 to 14, or % competition at 1 μM and 100 nM (with Compound 1 at 40 nM) for compound 15 respectively.

[3] = molecular target: T3, FTD patient brain-derived TDP-43 aggregates (Homo sapiens, UniProt Q13148); assay: Micro-radiobinding competition assay against [3H]-reference ligand; details: tritiated reference ligand at 25 nM; for Ki: 0.24 nM to 2 μM; for Human brain derived TDP-43 aggregates Mean % competition at 125 nM: compound at 125 nM; for Human brain derived TDP-43 aggregates Mean % competition at 1 μM: compound at 1 μM
T3 construct: A sample of brain tissue (frontal or temporal cortex) was homogenized; from tissue; host or cells: human FTD patient brain, frontal or temporal cortex, sarkosyl-insoluble fraction
T3 sequence (Q13148 whole entry): as above
Experimental: as §1, §2, §3
Results: Example compounds 1 to 10 were assessed for their potency to compete with the binding of [^3H]-reference ligand to FTD patient brain-derived TDP-43 aggregates. Results of the micro-radiobinding competition assay for the example compounds are shown in Table 2 below as: % competition at 1 μM and 125 nM.

[4] = tritiated compound 1.93 to 300 nM on human FTD sarkosyl-insoluble brain extracts, one-site specific binding fit, read-out: Kd (dissociation constant)
[5] = different batch of FTD sarkosyl-insoluble brain extracts, read-out: Kd (dissociation constant)

SMILES	Ki [3] [nM]	Human brain derived TDP-43 aggregates Mean % competition at 125 nM [3] [%]	Human brain derived TDP-43 aggregates Mean % competition at 1 μM [3] [%]	further results
O=C(Nc1ccc(F)nc1)c1cnc(-c2ccc(N3CC[C@@H](F)C3)nc2)s1 [[^3H]-Compound 1]				Kd ([1]; data from two independent experiments, human FTD sarkosyl-insoluble brain extracts, read-out: average Kd): 53 ± 10 nM; specific binding ([1]; human FTD sarkosyl insoluble brain extracts, result in words): high specific binding; Kd [1, 4]: 52 nM
O=C(Nc1cncc(F)c1)c1sc(-c2ccc(N3CC[C@@H](F)C3)nc2)nc1F [[^3H]-Compound 12]				Kd [1, 4]: 67 nM
O=C(Nc1cncc(F)c1)c1cnc(-c2ccc(N3CC[C@@H](F)C3)nc2)s1 [Compound 11, (R)—N-(5-fluoropyridin-3-yl)-2-(6-(3-fluoropyrrolidin-1-yl)pyridin-3-yl)thiazole-5-carboxamide]				Ki [2]: 50 nM; Human brain derived TDP-43 aggregates Mean % competition at 125 nM [2]: 65%; Human brain derived TDP-43 aggregates Mean % competition at 1 μM [2]: 80%
O=C(Nc1ccc(F)nc1)c1cnc(-c2ccc(N3CC[C@@H](F)C3)cc2)s1 [Compound 10]	71	54	70	
O=C(Nc1ccc(F)nc1)c1sc(-c2ccc(N3CC[C@@H](F)C3)nc2)nc1F [Compound 13, (R)-4-fluoro-N-(6-fluoropyridin-3-yl)-2-(6-(3-fluoropyrrolidin-1-yl)pyridin-3-yl)thiazole-5-carboxamide]				Ki [2]: 107 nM; Human brain derived TDP-43 aggregates Mean % competition at 125 nM [2]: 42%; Human brain derived TDP-43 aggregates Mean % competition at 1 μM [2]: 75%
O=C(Nc1cncnc1)c1sc(-c2ccc(N3CC[C@@H](F)C3)nc2)nc1F [Compound 14]				Ki [2]: 153 nM; Human brain derived TDP-43 aggregates Mean % competition at 125 nM [2]: 38%; Human brain derived TDP-43 aggregates Mean % competition at 1 μM [2]: 77%
O=C(Nc1ccncc1)c1cnc(-c2cnc(N3CC[C@H](F)C3)nc2)s1 [[^3H]-Compound 8, tritiated (S)-2-(2-(3-fluoropyrrolidin-1-yl)pyrimidin-5-yl)-N-(pyridin-4-yl)thiazole-5-carboxamide]				Kd [1, 5]: 75 nM
O=C(Nc1cnsc1)c1sc(-c2ccc(N3CC[C@@H](F)C3)nc2)nc1F [Compound 15]				Ki [2]: 10 nM; Mean % competition at 100 nM ([2]; compound at 100 nM, [3H]-Compound 1 at 40 nM): 47* %; Human brain derived TDP-43 aggregates Mean % competition at 1 μM [2]: 92%
O=C(Nc1cnc(F)nc1)c1cnc(-c2ccc(N3CC[C@@H](F)C3)nc2)s1 [Compound 6]	89	46	83	
O=C(Nc1ccncc1)c1cnc(-c2cnc(N3CC[C@H](F)C3)nc2)s1 [Compound 8, (S)-2-(2-(3-fluoropyrrolidin-1-yl)pyrimidin-5-yl)-N-(pyridin-4-yl)thiazole-5-carboxamide]	75	47	78	
O=C(Nc1cncc(F)c1)c1cnc(-c2ccc(N3CC[C@@H](F)C3)nc2)s1 [[^3H]-Compound 11, tritiated (R)—N-(5-fluoropyridin-3-yl)-2-(6-(3-fluoropyrrolidin-1-yl)pyridin-3-yl)thiazole-5-carboxamide]				Kd [1, 4]: 80 nM
O=C(Nc1cncc(F)c1)c1sc(-c2ccc(N3CC[C@@H](F)C3)nc2)nc1F [Compound 12, (R)-4-fluoro-N-(5-fluoropyridin-3-yl)-2-(6-(3-fluoropyrrolidin-1-yl)pyridin-3-yl)thiazole-5-carboxamide]				Ki [2]: 213 nM; Human brain derived TDP-43 aggregates Mean % competition at 125 nM [2]: 43%; Human brain derived TDP-43 aggregates Mean % competition at 1 μM [2]: 50%
O=C(Nc1cnsc1)c1cnc(-c2ccc(N3CC[C@@H](F)C3)nc2)s1 [[^3H]-Compound 4, tritiated (R)-2-(6-(3-fluoropyrrolidin-1-yl)pyridin-3-yl)-N-(isothiazol-4-yl)thiazole-5-carboxamide]				Kd [1, 5]: 51 nM
O=C(Nc1cnsc1)c1cnc(-c2ccc(N3CC[C@@H](F)C3)nc2)s1 [Compound 4, (R)-2-(6-(3-fluoropyrrolidin-1-yl)pyridin-3-yl)-N-(isothiazol-4-yl)thiazole-5-carboxamide]	116	60	94	
O=C(Nc1ccncc1)c1cnc(-c2cnc(N3CC[C@@H](F)C3)cn2)s1 [Compound 9]	82	60	83	
O=C(Nc1cnc(F)cn1)c1cnc(-c2ccc(N3CC[C@@H](F)C3)nc2)s1 [Compound 5]	223	53	70	
Nc1cc(NC(=O)c2cnc(-c3ccc(N4CC[C@H](F)C4)nc3)s2)ccc1F [Compound 7]	63	52	80	
O=C(Nc1ccc(F)nc1)c1cnc(-c2ccc(N3CC[C@@H](F)C3)nc2)s1 [Compound 1, (R)—N-(6-fluoropyridin-3-yl)-2-(6-(3-fluoropyrrolidin-1-yl)pyridin-3-yl)thiazole-5-carboxamide]	105	63	102	
